What was measured:
Mushroom tyrosinase [1] = target: T1, Mushroom tyrosinase (Agaricus bisporus, UniProt O42713+Q00024+C7FF04+C7FF05); assay: Inhibition of mushroom Tyrosinase; type: protein assay
Tyrosinase = Tyrosinase (Homo sapiens, UniProt P14679); assay: Inhibition of human tyrosinase
HUVEC = assay: Antiproliferative activity against VEGF-stimulated HUVEC assessed as inhibition of cell growth incubated for 3 days by MTT assay; type: functional, cell-based; conditions: Homo sapiens, 72 h
MCF7 [2] = assay: Cytotoxicity against human MCF7 cells assessed as reduction in cell growth incubated for 24 hrs by MTT assay; type: functional, cell-based; conditions: MCF7, 24 h
A549 [3] = assay: Cytotoxicity against human A549 cells assessed as reduction in cell growth incubated for 24 hrs by MTT assay; type: functional, cell-based; conditions: A549, 24 h
MCF-12A = assay: Cytotoxicity against human MCF-12A cells assessed as reduction in cell viability incubated for 24 hrs by MTT assay; type: functional, cell-based
[4] = Cytotoxicity against human HFL1 cells assessed as cell growth inhibition incubated for 24 hrs by MTT assay; type: toxicity, cell-based
HCT-15 = assay: Growth inhibition of human HCT-15 cells incubated for 72 hrs by SRB assay; type: functional
MCF7 [5] = assay: Cytotoxicity against human MCF7 cells assessed as reduction in cell growth incubated for 72 hrs by MTT assay; type: functional, cell-based; conditions: MCF7, 72 h
A549 [6] = assay: Cytotoxicity against human A549 cells assessed as reduction in cell growth incubated for 72 hrs by MTT assay; type: functional, cell-based; conditions: A549, 72 h
[7] = target: T2, Hepatocyte growth factor receptor (Homo sapiens, UniProt P08581); assay: Inhibition of c-Met (unknown origin) by mobility shift assay
T2 sequence (P08581 whole entry): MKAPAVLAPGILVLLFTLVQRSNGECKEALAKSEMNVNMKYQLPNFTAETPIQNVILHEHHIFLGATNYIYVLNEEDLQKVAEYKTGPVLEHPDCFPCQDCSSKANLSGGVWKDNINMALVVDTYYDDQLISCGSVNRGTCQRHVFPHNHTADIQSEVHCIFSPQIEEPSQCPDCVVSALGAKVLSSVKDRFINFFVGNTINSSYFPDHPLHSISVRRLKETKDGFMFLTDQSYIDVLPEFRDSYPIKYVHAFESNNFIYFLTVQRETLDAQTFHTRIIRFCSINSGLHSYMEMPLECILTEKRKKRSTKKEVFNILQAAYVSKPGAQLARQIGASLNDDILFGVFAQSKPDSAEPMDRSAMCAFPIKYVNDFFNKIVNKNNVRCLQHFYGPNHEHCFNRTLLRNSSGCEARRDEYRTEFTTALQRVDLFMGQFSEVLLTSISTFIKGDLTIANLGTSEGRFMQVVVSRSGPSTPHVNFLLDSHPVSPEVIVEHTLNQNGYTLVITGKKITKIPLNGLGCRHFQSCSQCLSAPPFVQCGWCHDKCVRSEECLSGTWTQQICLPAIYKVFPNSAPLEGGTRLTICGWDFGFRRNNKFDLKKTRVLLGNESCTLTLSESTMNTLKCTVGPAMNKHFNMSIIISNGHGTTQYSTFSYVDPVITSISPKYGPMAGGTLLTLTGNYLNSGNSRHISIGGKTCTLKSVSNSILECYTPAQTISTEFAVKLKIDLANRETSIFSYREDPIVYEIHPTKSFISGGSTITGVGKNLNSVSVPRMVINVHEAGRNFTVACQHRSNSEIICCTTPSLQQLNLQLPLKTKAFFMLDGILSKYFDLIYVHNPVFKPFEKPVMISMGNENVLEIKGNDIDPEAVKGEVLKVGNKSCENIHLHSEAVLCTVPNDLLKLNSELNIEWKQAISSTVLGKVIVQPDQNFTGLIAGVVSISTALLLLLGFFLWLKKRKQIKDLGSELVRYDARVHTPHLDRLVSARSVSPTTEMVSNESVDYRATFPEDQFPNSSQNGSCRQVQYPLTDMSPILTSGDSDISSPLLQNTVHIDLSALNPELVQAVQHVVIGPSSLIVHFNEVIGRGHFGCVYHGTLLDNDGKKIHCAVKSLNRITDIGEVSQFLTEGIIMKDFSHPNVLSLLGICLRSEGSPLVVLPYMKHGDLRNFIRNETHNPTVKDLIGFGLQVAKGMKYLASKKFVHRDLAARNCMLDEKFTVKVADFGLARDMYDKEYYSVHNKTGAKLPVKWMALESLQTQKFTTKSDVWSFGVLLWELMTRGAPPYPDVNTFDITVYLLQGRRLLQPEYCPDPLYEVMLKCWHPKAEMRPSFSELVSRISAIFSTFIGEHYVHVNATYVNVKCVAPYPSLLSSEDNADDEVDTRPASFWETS

HepG2 = assay: Cytotoxicity against human HepG2 cells assessed as reduction in cell growth incubated for 72 hrs by MTT assay; type: functional, cell-based; conditions: HepG2, 72 h
[8] = target: Kinesin-like protein KIF11 (Homo sapiens, UniProt P52732); assay: Inhibition of KSP/Eg5 (unknown origin)
Kinesin-like protein KIF11, sequence (P52732 whole entry): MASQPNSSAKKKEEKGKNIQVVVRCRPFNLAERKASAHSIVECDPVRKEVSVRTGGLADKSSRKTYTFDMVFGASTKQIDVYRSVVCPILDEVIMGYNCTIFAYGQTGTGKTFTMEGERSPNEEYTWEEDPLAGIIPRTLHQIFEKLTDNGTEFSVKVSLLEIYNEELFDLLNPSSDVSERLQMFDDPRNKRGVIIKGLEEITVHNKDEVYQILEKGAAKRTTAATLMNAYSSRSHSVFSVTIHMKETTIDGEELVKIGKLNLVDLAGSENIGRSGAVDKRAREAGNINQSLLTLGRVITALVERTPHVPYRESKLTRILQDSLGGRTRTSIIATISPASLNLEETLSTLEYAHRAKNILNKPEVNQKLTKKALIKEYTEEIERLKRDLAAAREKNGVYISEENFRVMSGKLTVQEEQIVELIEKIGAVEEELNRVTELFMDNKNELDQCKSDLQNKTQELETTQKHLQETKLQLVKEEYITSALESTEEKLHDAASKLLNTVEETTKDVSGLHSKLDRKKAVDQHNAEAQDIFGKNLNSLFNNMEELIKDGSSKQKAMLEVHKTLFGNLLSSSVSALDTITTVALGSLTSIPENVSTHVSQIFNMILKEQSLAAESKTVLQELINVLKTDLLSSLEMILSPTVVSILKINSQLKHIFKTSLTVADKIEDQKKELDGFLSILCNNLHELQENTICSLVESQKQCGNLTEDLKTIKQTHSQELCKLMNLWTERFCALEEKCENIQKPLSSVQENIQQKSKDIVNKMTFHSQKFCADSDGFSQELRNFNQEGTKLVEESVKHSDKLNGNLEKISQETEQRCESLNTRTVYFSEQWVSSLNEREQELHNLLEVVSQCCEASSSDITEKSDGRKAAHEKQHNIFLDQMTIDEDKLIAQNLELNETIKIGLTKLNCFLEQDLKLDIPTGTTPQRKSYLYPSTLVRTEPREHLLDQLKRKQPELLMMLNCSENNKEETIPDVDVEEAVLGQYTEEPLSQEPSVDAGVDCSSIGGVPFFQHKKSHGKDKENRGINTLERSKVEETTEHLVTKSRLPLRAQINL

DNA topoisomerase 1 = DNA topoisomerase 1 (Homo sapiens, UniProt P11387); assay: Inhibition of DNA topoisomerase I (unknown origin)
DNA topoisomerase 1, sequence (P11387 whole entry): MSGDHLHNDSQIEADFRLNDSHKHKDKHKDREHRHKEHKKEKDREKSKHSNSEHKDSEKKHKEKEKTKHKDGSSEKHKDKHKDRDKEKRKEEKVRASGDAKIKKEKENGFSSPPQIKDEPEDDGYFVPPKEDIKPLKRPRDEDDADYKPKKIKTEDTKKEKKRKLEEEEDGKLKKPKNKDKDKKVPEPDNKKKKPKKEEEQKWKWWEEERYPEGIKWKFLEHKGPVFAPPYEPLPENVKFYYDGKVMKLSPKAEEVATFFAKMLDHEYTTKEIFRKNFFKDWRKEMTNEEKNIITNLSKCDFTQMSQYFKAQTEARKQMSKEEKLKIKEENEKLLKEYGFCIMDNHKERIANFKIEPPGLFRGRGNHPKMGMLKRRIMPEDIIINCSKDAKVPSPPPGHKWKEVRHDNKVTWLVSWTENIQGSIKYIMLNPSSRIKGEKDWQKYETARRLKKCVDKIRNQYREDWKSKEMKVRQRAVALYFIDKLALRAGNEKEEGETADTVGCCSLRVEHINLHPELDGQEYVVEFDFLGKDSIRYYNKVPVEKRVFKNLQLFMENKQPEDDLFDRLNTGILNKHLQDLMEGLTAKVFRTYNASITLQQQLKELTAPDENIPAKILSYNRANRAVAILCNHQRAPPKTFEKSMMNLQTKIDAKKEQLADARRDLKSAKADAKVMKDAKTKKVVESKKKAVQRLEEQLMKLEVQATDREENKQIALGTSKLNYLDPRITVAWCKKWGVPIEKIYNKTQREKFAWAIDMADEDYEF

A549 [9] = assay: Antiproliferative activity against human A549 cells transfected with sh-empty vector assessed as reduction in cell growth incubated for 48 hrs by MTT assay; type: functional, cell-based; conditions: A549, 48 h
A549 [10] = assay: Antiproliferative activity against human A549 cells transfected with sh-EZH2 vector assessed as reduction in cell growth incubated for 48 hrs by MTT assay; type: functional, cell-based; conditions: A549, 48 h
K562 [11] = assay: Antiproliferative activity against human K562 cells assessed as reduction in cell growth incubated for 48 hrs by MTT assay; type: functional, cell-based; conditions: K562, 48 h
A549 [12] = assay: Anticancer activity against human A549 cells assessed as inhibition of cell growth; type: functional, cell-based
U-251 = assay: Anticancer activity against human U-251 cells assessed as reduction in cell growth; type: functional, cell-based
[13] = target: Lysine-specific histone demethylase 1A (Homo sapiens, UniProt O60341); assay: Inhibition of LSD1 (unknown origin)
[14] = target: Vascular endothelial growth factor receptor 2 (Homo sapiens, UniProt P35968); assay: Inhibition of VEGFR-2 (unknown origin) by ELISA analysis
Vascular endothelial growth factor receptor 2, sequence (P35968 whole entry): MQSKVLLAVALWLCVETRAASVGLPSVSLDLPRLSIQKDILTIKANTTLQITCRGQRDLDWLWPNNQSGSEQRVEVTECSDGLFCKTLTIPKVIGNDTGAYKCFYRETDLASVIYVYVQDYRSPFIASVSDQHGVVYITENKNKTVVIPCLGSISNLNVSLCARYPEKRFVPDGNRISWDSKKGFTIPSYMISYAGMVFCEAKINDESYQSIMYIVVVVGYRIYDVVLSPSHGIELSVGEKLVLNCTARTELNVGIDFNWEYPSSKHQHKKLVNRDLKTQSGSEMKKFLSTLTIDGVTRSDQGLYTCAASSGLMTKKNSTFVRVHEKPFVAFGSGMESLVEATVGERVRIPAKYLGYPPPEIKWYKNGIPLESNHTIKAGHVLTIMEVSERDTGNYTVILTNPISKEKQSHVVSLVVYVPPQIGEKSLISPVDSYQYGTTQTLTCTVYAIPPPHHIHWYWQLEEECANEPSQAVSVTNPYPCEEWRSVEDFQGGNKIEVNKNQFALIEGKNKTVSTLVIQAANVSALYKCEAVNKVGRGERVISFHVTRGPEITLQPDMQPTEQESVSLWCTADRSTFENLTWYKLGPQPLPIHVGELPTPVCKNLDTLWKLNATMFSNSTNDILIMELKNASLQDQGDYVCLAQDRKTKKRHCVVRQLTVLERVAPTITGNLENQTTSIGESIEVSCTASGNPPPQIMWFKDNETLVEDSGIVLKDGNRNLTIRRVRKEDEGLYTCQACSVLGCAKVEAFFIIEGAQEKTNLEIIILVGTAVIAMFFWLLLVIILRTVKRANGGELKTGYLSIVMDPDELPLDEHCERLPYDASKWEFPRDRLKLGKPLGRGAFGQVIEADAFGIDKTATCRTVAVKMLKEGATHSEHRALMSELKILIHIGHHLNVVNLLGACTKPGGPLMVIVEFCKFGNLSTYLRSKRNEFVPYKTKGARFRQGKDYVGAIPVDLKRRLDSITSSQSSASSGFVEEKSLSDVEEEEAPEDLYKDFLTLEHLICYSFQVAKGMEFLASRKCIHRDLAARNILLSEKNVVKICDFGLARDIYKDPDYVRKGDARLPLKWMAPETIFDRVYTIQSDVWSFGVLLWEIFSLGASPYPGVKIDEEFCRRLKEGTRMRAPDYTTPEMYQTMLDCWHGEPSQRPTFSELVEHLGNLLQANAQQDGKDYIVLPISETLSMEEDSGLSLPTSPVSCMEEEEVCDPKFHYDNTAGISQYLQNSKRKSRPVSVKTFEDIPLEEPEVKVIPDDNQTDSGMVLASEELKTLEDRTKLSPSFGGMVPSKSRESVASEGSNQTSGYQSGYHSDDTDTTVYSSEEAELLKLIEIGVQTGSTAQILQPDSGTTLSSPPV

[15] = Cytotoxicity against mouse NIH3T3 cells assessed as reduction in cell viability incubated for 24 hrs by MTT assay; type: toxicity, cell-based
T47D = assay: Cytotoxicity against human T47D cells assessed as reduction in cell viability by MTT assay; type: functional, cell-based
HT-29 = assay: Cytotoxicity against human HT-29 cells assessed as reduction in cell growth by MTT assay; type: functional, cell-based
DU-145 = assay: Cytotoxicity against human DU-145 cells assessed as reduction in cell growth by MTT assay; type: functional, cell-based
A-431 = assay: Cytotoxicity against human A-431 cells assessed as reduction in cell growth by MTT assay; type: functional, cell-based
A2780 = assay: Cytotoxicity against human A2780 cells assessed as reduction in cell growth by MTT assay; type: functional, cell-based
MCF7 [16] = assay: Cytotoxicity against human MCF7 cells assessed as reduction in cell growth by MTT assay; type: functional, cell-based
[17] = target: Poly [ADP-ribose] polymerase 1 (Homo sapiens, UniProt P09874); assay: Inhibition of PARP-1 (unknown origin)
MCF7 [18] = assay: Cytotoxicity against human MCF7 cells assessed as reduction in cell viability incubated for 96 hrs by MTT assay; type: functional
[19] = target: Poly [ADP-ribose] polymerase 2 (Homo sapiens, UniProt Q9UGN5); assay: Inhibition of PARP-2 (unknown origin)
MDA-MB-436 = assay: Cytotoxicity against human MDA-MB-436 cells assessed as reduction in cell viability incubated for 96 hrs by MTT assay; type: functional
MDA-MB-231 = assay: Cytotoxicity against human MDA-MB-231 cells assessed as reduction in cell viability by MTT assay; type: functional, cell-based
CNE-2 = assay: Anticancer activity against human CNE-2 cells assessed as reduction in cell growth; type: functional, cell-based
SUNE1 = assay: Anticancer activity against human SUNE1 cells assessed as reduction in cell growth; type: toxicity, cell-based
K562 [20] = assay: Antiproliferative activity against human K562 cells assessed as reduction in cell growth incubated for 48 hrs by WST-8 assay; type: functional, cell-based; conditions: K562, 48 h
[21] = target: T2, Hepatocyte growth factor receptor; assay: Inhibition of human c-Met
MKN-45 = assay: Antiproliferative activity against human MKN-45 cells assessed as reduction in cell growth incubated for 72 hrs by CCK-8 assay; type: functional, cell-based; conditions: MKN-45, 72 h
Mushroom tyrosinase [22] = target: T1, Mushroom tyrosinase; assay: Inhibition of mushroom tyrosinase using L-DOPA as substrate preincubated for 10 mins followed by substrate addition and measured after 15 mins by spectrophotometric method; type: protein assay

Tyrosinase, sequence (P14679 whole entry): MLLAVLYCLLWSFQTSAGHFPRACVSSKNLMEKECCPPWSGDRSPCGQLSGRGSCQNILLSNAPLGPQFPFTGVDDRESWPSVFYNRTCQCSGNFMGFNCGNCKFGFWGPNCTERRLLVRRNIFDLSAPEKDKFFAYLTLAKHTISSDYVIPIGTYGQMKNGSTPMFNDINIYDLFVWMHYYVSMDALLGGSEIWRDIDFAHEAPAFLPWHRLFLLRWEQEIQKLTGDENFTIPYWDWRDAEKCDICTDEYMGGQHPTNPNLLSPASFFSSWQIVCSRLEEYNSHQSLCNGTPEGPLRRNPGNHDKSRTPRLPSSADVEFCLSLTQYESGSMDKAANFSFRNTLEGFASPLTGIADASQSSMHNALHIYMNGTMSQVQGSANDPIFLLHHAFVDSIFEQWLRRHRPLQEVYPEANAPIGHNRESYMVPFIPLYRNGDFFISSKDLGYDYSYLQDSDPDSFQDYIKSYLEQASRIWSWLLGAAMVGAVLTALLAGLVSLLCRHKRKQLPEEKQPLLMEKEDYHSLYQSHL

NC(=S)N/N=C/c1ccc[nH]1
IC50 (Mushroom tyrosinase [1]): 3.99 µM

O=C(N/N=C/c1ccc(O)cc1)c1cc2ccccc2[nH]1
IC50 (Mushroom tyrosinase [1]): 0.07 µM
IC50 (Tyrosinase): 175 µM

Cc1c(OCC(O)CN2CCN(C)CC2)cn2ncnc(Oc3ccc(NC(=O)C4(C(=O)Nc5ccc(F)cc5)CC4)cc3F)c12 (configuration not stated)
IC50 (HUVEC): 5 µM

O=C(NNC(=S)Nc1ccc(Br)cc1)c1cc2c([nH]c3ccccc32)c(-c2cccc(O)c2)n1
IC50 (MCF7 [2]): 3.59 µM
IC50 (A549 [3]): 3.63 µM
IC50 (MCF-12A): 30.2 µM

CSc1nnc(-c2cc3c([nH]c4ccccc43)c(-c3cccc(O)c3)n2)o1
IC50 (MCF7 [2]): 6.41 µM
IC50 (A549 [3]): 4.57 µM
IC50 (MCF-12A): 38.2 µM

COc1cccc2c1c(C(=O)C(=O)Nc1cc[nH]n1)cn2Cc1ccc(F)cc1
IC50 (Mushroom tyrosinase [1]): 372 µM

COc1ccc(OC)c(-c2nc(/C=C3/C(=O)N(Cc4ccccc4)c4ccc(Br)cc43)cc3c2[nH]c2ccccc23)c1
IC50 at 24 h [4]: 49.8 µM
GI50 (HCT-15): 890 nM

Cc1c(C(=O)Nc2ccc(Oc3ncnc4[nH]ccc34)c(F)c2)nnn1-c1ccc(F)cc1
IC50 (MCF7 [5]): 2900 nM
IC50 (A549 [6]): 4.79 µM
IC50 [7]: 790 nM
IC50 (HepG2): 2030 nM

Cc1ccc(NC(=S)NNC(=O)c2cc3c([nH]c4ccccc43)c(-c3cccc(O)c3)n2)cc1
IC50 (MCF7 [2]): 6.57 µM
IC50 [8]: 18.8 µM
IC50 (DNA topoisomerase 1): 28.1 µM
IC50 (A549 [3]): 2.57 µM
IC50 (MCF-12A): 16 µM

Cc1cc(C)c(CNC(=O)c2c(C)cn(Cc3ccc(CC(F)(F)F)cc3)c2C)c(=O)[nH]1
IC50 (A549 [9]): 72.8 µM
IC50 (A549 [10]): 270 µM
IC50 (K562 [11]): 58.7 µM

COc1cccc2c1c(C(C)=O)cn2Cc1ccc(F)cc1
IC50 (Mushroom tyrosinase [1]): 224 µM

CC(=O)n1cc(C(=O)OC(C)C)c(C#Cc2ccc(Cl)cc2)c1C(=O)OC(C)C
IC50 (A549 [12]): 3.49 µM
IC50 (U-251): 2290 nM

CNC(=S)N/N=C/c1ccc[nH]1
IC50 (Mushroom tyrosinase [1]): 344.83 µM

CCOCc1cccc(NC(=O)c2cc3sccc3n2C)c1CCOc1ccc(OC[C@@H]2CCNC2)cc1
IC50 [13]: 7.8 nM

CNC(=O)c1ccccc1Sc1ccc2c(/N=N/c3cc(C)[nH]c3C)n[nH]c2c1
IC50 (HUVEC): 44 µM

C=c1[nH]c2ccc(Br)cc2/c1=C/c1cc2c([nH]1)CN(CCN(CC)CC)C2=O
IC50 [14]: 24900 nM

Cc1c(C(=O)C(=O)Nc2ccncc2)cc(-c2ccccc2)n1-c1ccccc1
IC50 at 24 h [15]: > 100 µM
IC50 (T47D): 11.8 µM

O=C(NCc1ccccc1)C(CNC(=O)C1C(C(=O)O)[C@@H]2CC[C@H]1O2)Cc1ccc[nH]1 (some centres not stated)
IC50 (HT-29): 17 nM
IC50 (DU-145): 17 nM
IC50 (A-431): 17 nM
IC50 (A2780): 17 nM
IC50 (MCF7 [16]): 17 nM

CC(C)NCc1ccc(-c2[nH]c3cccc4c3c2C=NNC4=O)cc1
IC50 [17]: 14 nM
CC50 (MCF7 [18]): 22.3 µM
IC50 [19]: 8.84 nM
CC50 (MDA-MB-436): 980 nM

CCN1CCC(Oc2ccc(OCCc3ccccc3NC(=O)c3cc4sccc4n3C)cc2)CC1
IC50 [13]: 451 nM

Cc1c(C(=O)C(=O)Nc2ccncc2)cc(-c2ccccc2)n1-c1ccc(F)cc1
IC50 (MDA-MB-231): 11.8 µM
IC50 at 24 h [15]: > 100 µM

S=C(N/N=C/c1ccc[nH]1)Nc1ccccc1
IC50 (Mushroom tyrosinase [1]): 94.23 µM

COCc1cccc(NC(=O)c2cc3sccc3n2C)c1CCOc1ccc(OC2CCNCC2)cc1
IC50 [13]: 75 nM

O=C(CN1CCCCC1)Nc1cccc(-c2cc3ccccc3[nH]2)c1
IC50 [14]: 1140 nM

O=C(N/N=C/c1ccc([N+](=O)[O-])n1Cc1cccc(F)c1)c1cccc(O)c1O
IC50 (CNE-2): 4.43 µM
IC50 (SUNE1): 80 nM

CCNC(=S)NNC(=O)c1cc2c([nH]c3ccccc32)c(-c2cccc(O)c2)n1
IC50 (MCF7 [2]): 7.2 µM
IC50 [8]: 32.3 µM
IC50 (DNA topoisomerase 1): 28.3 µM
IC50 (A549 [3]): 4.56 µM
IC50 (MCF-12A): 28.4 µM

Cc1cc(NS(=O)(=O)c2ccc(N3C(=O)/C(=C/c4c[nH]c5ccccc45)N=C3c3ccccc3)cc2)no1
IC50 [14]: 70 nM

Cc1cc(NS(=O)(=O)c2ccc(N3C(=O)/C(=C/c4c[nH]c5ccccc45)N=C3c3ccc(Cl)cc3)cc2)no1
IC50 [14]: 1610 nM

Cc1cc(C)c(CNC(=O)c2c(C)n(Cc3ccccc3)c3ccc(OCCN4CCCCC4)cc23)c(=O)[nH]1
IC50 (K562 [20]): 52.6 µM

CNC(=O)c1ccc(-c2ccc3ncc(S(=O)(=O)n4ccc5ccccc54)n3c2)cc1F
IC50 [21]: 12.8 nM
IC50 (MKN-45): 9.9 nM

C=Cc1ccccc1-c1ccn(C)c1C#N
IC50 (Mushroom tyrosinase [22]): 0.97 µM
